From patent publication US7989495B2, “Compositions and methods for inhibiting NF-κB mediated tumorigenicity and adhesion dependent survival of cancer cells” (University of Utah Research Foundation, priority 2002, dated 2011)
“Also recorded” adds a separate entry of the source.

Assays:
[1] = test system: IκB phosphorylation; conditions: Pierce et al., 1997; cited from earlier work
[2] = test system: HT-29 cells; test: Soft agar colony formation assay (anchorage-independent proliferation); assay type: cell-based; conditions: 10 μM, 6 days in soft agar
Protocol: (§1) DLD-1, HCT-116, and HT-29 cells were cultured for 6 days in soft agar in the presence of DMSO (control), 10 μM BAY 11-7082, or 10 μM BAY 11-7085. The data points represent the means of colony counts per field (20×) performed in 5 different regions of the culture dishes. The data shown represent a typical result of two separate experiments. FIGS. 2B,C, show athymic mice received subcutaneous injections of HT-29 (B) or HCT-116 (C) cells, followed by […] of BAY 11-7085 (dark bars) or DMSO (white bars) intraperitoneally twice weekly. The bars represent the 25-75% ranges of the tumor volumes and the horizontal lines in the bars are the medians. Using the Kruskal-Wallace statistical test to compare the median tumor volumes between BAY 11-7085 and DMSO yielded a p-value of 0.005 for HT-29 cells but >0.05 for HCT-116 cells.
(§2) Anchorage-independent cell growth is a hallmark of cancer cells and is a good correlate to tumorigencity in vivo. Therefore, the effects of BAY 11-7082 and BAY 11-7085 were examined on colon cancer cell growth using the soft agar colony formation assay.

[3] = test system: DLD-1 cells; test: as above; assay type: cell-based; conditions: 10 μM, 6 days in soft agar
Protocol: as §1, §2

[4] = test system: TNFα-induced NF-κB activation; conditions: Pierce et al., 1997; cited from earlier work
[5] = test system: transiently suspended HT-29 cells; test: Apoptosis (annexin V) of transiently suspended cells allowed to readhere; assay type: cell-based
Protocol: HT-29 cells that were either transiently suspended with trypsin-EDTA or adherent for three days, were treated at time zero with DMSO or 10-100 μM BAY 11-7085. The percent of apoptotic cells was determined using the annexin V flow cytometry assay and graphed versus the dose of BAY 11-7085. […] The cells were fixed and immunostained with an NF-κB p65 subunit monoclonal antibody.
The transiently suspended cells were lysed and allowed to bind to DNA oligonucleotides, containing the NF-κB consensus binding site, that were immobilized to 96-well plates. NF-κB protein bound to the oligonucleotides was detected by an antibody to the p65 subunit that only recognized p65 that is bound to DNA. The positive control was HeLa cells that were stimulated with TNFα A control was performed using excess free NF-κB oligonucleotides (Competitor). […] NF-κB binding activity was determined by the TransAM assay as in FIG. 5A. […] The data shown represent typical results of three separate experiments. […] An immunoblot for COX-2 was performed.
The percentage of apoptotic cells was determined using the annexin V assay. The data points represent the averages of three experiments; bars, ±SE. E. DLD-1 and F. HT-29 cells were transduced with an adenovirus containing the IκB super-repressor construct. After 3 days, the cells were transiently suspended and allowed to readhere in the presence of subapoptotic concentrations of BAY 11-7085 or DMSO (vehicle) for 8 h. The data are expressed as fractions of cells surviving compared with the controls (no adenovirus) and were quantitatively determined by staining the remaining adherent cells with crystal violet.
(§3) Single cell suspensions were plated at 100,000 cells per well in 24-well plates in media containing DMSO, BAY 11-7082, BAY 11-7085, or MG-132 for 8-24 hours in an incubator. Alternatively, DMSO, BAY 11-7082, BAY 11-7085, or MG-132 were added to cells that were confluent and adherent for several days. The nonadherent cells were aspirated off with the media and spun for 3 minutes at 2,000 rpm in 15 ml polypropylene tubes. The adherent cells were washed twice with PBS, dispersed in trypsin, and spun down for 3 minutes at 2,000 rpm in 15 ml polypropylene tubes. The nonadherent and adherent cells were resuspended in 1× binding buffer (10 mM HEPES/NaOH, pH 7.4, 140 mM NaCl, and 2.5 mM CaCl2) to a final concentration of 10^6 cells/ml. 100 μl of the cell solution were transferred to a 5 ml culture tube and incubated with 5 μl of annexin V-FITC-conjugated monoclonal antibody (Pharmingen) and 10 μl of propidium iodide (from a 50 μg/ml stock solution made in PBS) in the dark at 25° C. for 15 minutes. 400 μl of binding buffer was added to each tube and the cells were analyzed by flow cytometry immediately. The percent of apoptosis was determined as the percent of annexin V-positive, propidium iodide-negative cells of the total cells counted.
Various concentrations of BAY 11-7085 were added to HT-29 cells that were transiently suspended in trypsin-PBS for approximately 15 minutes before replating. The transiently suspended cells were quickly allowed to readhere in order to prevent anoikis. Alternatively, BAY 11-7085 was added to adherent HT-29 cell monolayers.

[6] = test system: arthritis; conditions: Pierce et al., 1997; cited from earlier work
[7] = test system: JNK/SAPK and p38; conditions: Pierce et al., 1997; cited from earlier work
[8] = test system: adherent HT-29 cells; test: Apoptosis assay (annexin V-FITC / propidium iodide flow cytometry), adherent cells; assay type: cell-based; conditions: for level of apoptosis (annexin V-positive, propidium iodide-negative cells): doses up to 20 μM (MG-132 20 μM), 24 hours
Protocol: The data points represent the average percent of annexin V-positive, propidium iodide-negative cells (of the total cells counted) from triplicate experiments. The error bars represent the standard error of the means. […] The results shown are a graphic representation of individual flow cytometry results expressed as the percentage of cells that were annexin V-positive of those that excluded propidium iodide. […] An immunoblot of the lysates for cleaved PARP was performed. Each lane represents equal total protein concentrations. […] The cells were allowed to adhere to plastic dishes for 1 hour after which they were washed gently in PBS and stained with crystal violet. The crystal violet stained cells were solubilized in deoxycholate and the absorbance detected in a spectrophotometer at 590 nm. The adherent cells were expressed as a fraction of the controls Each data point represents the average of triplicate experiments and the error bars the standard errors of the means.
as §3

[9] = HT-29, increasing concentrations, 8 hours, 24 h

Row | SMILES | effect on IκB phosphorylation [1] | inhibition of anchorage-independent proliferation [2] | inhibition of anchorage-independent proliferation [3] | effect on TNFα-induced NF-κB activation [4] | share of transiently suspended, readhering cells that became apoptotic ([5]; HT-29) | effect on NF-κB and arthritis in rodent models [6] | effect on JNK/SAPK and p38 [7] | level of apoptosis (annexin V-positive, propidium iodide-negative cells) ([8]; adherent HT-29) | in vitro apoptotic threshold during readhesion ([5]; HT-29) [µM] | BAY 11-7085-induced apoptosis during readhesion ([5]; HT-29, transiently suspended, treated, allowed to readhere 8 hours) | apoptosis of transiently suspended cells ([5]; HT-29 suspended in trypsin about 15 minutes then replated, 10-100 μM) | percentage of apoptosis in the non-adherent cell fraction at high vs lower concentrations ([8]; HT-29, 50 and 100 μM, cells annexin V and propidium iodide positive (necrotic)) | percentage of apoptotic cells among cells that became non-adherent [8, 9] | percentage of apoptotic cells among cells that remained adherent [8, 9] | apoptosis of adherent cell monolayers compared with transiently suspended cells ([8]; adherent HT-29, even the highest doses (10-100 μM))
1 | Cc1ccc(S(=O)(=O)/C=C/C#N)cc1 [BAY 11-7082, (2E)-3-(tolysulfonyl)-2-propenenitrile] | inhibit | significantly inhibited | significantly inhibited | inhibit | vast majority | inhibit NF-κB and arthritis in rodent models | activate JNK/SAPK and p38 | caused an increase in the level of apoptosis |  |  |  |  |  |  | 
2 | CC(C)(C)c1ccc(S(=O)(=O)/C=C/C#N)cc1 [BAY 11-7085, (2E)-3-[4-(tertiarybutylphenyl)sulfonyl]-2-propenenitrile] | inhibit | significantly inhibited | significantly inhibited | inhibit | vast majority | inhibit NF-κB and arthritis in rodent models | activate JNK/SAPK and p38 | relatively greater for MG-132 than BAY 11-7085; also recorded: caused an increase in the level of apoptosis | > 20 | showed the same propensity for BAY 11-7085-induced apoptosis | caused a significant increase in apoptosis | decreased | majority; also recorded: predominantly apoptotic | only a minority | only a relatively small degree of apoptosis
